In the kinase profiling compilation of Christmann-Franck et al. (2016):
Several values for one entry are separate records, joined by “and”; a condition that tells them apart may be missing. Identical values can stand only once.

Key:
Test in all cases: KINOMEscan competition binding
Details in all cases: compound 10.0 µM
[1] = target: EPHA6 (human) (UniProt Q9UF33)
[2] = target: MST1R (human) (UniProt Q04912)
[3] = target: WEE1 (human) (UniProt P30291)
[4] = target: MAP4K5 (human) (UniProt Q9Y4K4)
[5] = target: LATS1 (human) (UniProt O95835)
[6] = tested on: EGFR (human), P00533 [P753S; 747-752 del]
[7] = target: PKN1 (human) (UniProt Q16512)
[8] = target: PAK3 (human) (UniProt O75914)
[9] = target: ABL2 (human) (UniProt P42684)
[10] = target: PLK1 (human) (UniProt P53350)
[11] = target: STK25 (human) (UniProt O00506)
[12] = target: PTK2B (human) (UniProt Q14289)
[13] = target: EIF2AK2 (human) (UniProt P19525)
[14] = tested on: EGFR (human), P00533 [L861Q]
[15] = target: YES1 (human) (UniProt P07947)
Sequence of YES1 (human) (P07947 whole entry, looked up): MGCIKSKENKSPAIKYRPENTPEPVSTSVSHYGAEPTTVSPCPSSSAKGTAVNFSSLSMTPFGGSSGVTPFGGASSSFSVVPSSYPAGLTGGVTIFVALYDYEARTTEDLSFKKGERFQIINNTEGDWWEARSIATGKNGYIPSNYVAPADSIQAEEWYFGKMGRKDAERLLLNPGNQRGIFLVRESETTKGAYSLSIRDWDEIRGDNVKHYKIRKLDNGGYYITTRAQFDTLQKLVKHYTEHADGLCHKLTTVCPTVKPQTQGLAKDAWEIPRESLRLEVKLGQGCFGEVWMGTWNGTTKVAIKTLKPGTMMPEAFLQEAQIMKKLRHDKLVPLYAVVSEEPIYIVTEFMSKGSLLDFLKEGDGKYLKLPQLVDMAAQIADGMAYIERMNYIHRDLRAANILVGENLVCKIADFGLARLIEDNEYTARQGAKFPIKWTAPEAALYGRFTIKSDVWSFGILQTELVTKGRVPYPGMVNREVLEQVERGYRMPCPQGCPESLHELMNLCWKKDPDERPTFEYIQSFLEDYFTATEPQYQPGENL

[16] = target: CAMK1D (human) (UniProt Q8IU85)
Sequence of CAMK1D (human) (Q8IU85 whole entry, looked up): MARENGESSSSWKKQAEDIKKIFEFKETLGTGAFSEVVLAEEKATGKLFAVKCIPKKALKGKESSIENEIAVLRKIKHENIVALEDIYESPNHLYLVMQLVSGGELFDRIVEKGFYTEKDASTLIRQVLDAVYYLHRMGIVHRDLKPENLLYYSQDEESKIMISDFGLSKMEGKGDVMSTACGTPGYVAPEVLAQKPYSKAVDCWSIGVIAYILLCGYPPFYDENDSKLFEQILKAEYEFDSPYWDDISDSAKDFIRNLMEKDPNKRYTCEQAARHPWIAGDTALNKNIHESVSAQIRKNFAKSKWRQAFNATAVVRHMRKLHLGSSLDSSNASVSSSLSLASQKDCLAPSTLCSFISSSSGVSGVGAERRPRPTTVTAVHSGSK

[17] = target: LTK (human) (UniProt P29376)
[18] = target: CSNK1A1L (human) (UniProt Q8N752)
Sequence of CSNK1A1L (human) (Q8N752 whole entry, looked up): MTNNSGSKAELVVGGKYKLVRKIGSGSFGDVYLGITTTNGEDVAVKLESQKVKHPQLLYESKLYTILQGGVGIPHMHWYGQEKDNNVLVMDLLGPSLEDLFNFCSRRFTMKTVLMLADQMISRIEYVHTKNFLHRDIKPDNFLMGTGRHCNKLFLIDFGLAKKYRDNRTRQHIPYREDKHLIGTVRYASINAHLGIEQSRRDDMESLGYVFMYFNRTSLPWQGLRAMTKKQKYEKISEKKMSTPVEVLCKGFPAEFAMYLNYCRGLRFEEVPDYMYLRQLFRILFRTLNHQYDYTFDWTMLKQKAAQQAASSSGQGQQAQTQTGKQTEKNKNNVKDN

[19] = target: JAK1 JH1 catalytic (human) (UniProt P23458)
[20] = target: TGFBR1 (human) (UniProt P36897)
[21] = target: TNNI3K (human) (UniProt Q59H18)
[22] = target: CAMK1 (human) (UniProt Q14012)
[23] = target: MAPK6 (human) (UniProt Q16659)
[24] = target: CHEK2 (human) (UniProt O96017)
[25] = target: CDK11B (human) (UniProt P21127)
[26] = target: RPS6KA4 KD1 (human) (UniProt O75676)
[27] = target: RPS6KA1 KD1 (human) (UniProt Q15418)
[28] = target: FYN (human) (UniProt P06241)
[29] = target: SRPK1 (human) (UniProt Q96SB4)
Sequence of SRPK1 (human) (Q96SB4 whole entry, looked up): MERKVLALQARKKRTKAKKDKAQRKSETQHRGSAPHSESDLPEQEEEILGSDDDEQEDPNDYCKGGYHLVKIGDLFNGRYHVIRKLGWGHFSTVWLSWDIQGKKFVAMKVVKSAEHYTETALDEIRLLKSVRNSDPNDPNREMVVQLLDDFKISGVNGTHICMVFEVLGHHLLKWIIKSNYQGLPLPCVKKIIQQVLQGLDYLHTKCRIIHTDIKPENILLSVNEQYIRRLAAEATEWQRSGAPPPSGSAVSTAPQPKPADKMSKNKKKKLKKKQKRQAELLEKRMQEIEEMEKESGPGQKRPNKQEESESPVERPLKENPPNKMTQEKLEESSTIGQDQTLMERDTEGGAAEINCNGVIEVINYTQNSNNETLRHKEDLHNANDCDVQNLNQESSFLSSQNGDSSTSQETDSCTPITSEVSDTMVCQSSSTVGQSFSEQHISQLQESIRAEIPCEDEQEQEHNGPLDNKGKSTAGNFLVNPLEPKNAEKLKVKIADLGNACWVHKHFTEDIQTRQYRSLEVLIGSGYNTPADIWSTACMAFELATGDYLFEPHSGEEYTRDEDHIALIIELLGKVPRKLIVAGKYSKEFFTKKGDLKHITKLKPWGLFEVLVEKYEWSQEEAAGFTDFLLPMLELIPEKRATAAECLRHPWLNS

[30] = target: ADCK4 (human) (UniProt Q96D53)
[31] = target: CAMK2A (human) (UniProt Q9UQM7)
[32] = target: AKT2 (human) (UniProt P31751)
[33] = target: ERBB2 (human) (UniProt P04626)
Sequence of ERBB2 (human) (P04626 whole entry, looked up): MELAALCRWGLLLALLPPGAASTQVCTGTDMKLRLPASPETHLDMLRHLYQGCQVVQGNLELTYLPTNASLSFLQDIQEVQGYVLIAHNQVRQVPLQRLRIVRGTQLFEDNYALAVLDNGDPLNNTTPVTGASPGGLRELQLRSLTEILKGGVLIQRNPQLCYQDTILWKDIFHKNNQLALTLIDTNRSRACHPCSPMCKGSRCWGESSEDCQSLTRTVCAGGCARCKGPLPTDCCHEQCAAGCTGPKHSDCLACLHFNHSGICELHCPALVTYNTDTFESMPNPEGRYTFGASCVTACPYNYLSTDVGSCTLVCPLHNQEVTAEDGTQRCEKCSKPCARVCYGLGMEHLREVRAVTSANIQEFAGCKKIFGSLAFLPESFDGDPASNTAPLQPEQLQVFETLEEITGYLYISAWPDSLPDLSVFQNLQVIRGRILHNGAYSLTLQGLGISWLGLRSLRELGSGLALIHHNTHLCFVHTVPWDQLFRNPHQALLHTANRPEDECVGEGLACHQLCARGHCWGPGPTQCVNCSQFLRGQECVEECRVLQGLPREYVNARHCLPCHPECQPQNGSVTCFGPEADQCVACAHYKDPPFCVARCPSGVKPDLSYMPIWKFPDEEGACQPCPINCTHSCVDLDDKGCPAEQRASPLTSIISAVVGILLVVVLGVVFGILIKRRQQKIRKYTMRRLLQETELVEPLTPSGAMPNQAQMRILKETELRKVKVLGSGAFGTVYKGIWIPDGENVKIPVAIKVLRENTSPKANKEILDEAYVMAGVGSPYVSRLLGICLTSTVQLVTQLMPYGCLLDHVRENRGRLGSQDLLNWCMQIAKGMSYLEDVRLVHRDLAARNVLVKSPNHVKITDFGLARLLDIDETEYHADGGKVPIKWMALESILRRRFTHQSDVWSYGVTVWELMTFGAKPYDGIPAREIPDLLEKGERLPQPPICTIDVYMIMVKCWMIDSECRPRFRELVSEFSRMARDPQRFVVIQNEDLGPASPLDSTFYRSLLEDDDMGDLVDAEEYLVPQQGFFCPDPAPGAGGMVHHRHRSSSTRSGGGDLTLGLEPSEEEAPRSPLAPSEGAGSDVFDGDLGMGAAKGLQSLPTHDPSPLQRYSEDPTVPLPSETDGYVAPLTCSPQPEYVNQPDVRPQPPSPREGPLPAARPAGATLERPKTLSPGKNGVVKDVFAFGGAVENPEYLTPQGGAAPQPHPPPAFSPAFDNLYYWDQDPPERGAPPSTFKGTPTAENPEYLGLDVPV

[34] = target: CDK8 (human) (UniProt P49336)
[35] = target: CSK (human) (UniProt P41240)
[36] = target: EPHA5 (human) (UniProt P54756)
[37] = target: PAK4 (human) (UniProt O96013)
[38] = target: ABL1 (human) (UniProt P00519)
Sequence of ABL1 (human) (P00519 whole entry, looked up): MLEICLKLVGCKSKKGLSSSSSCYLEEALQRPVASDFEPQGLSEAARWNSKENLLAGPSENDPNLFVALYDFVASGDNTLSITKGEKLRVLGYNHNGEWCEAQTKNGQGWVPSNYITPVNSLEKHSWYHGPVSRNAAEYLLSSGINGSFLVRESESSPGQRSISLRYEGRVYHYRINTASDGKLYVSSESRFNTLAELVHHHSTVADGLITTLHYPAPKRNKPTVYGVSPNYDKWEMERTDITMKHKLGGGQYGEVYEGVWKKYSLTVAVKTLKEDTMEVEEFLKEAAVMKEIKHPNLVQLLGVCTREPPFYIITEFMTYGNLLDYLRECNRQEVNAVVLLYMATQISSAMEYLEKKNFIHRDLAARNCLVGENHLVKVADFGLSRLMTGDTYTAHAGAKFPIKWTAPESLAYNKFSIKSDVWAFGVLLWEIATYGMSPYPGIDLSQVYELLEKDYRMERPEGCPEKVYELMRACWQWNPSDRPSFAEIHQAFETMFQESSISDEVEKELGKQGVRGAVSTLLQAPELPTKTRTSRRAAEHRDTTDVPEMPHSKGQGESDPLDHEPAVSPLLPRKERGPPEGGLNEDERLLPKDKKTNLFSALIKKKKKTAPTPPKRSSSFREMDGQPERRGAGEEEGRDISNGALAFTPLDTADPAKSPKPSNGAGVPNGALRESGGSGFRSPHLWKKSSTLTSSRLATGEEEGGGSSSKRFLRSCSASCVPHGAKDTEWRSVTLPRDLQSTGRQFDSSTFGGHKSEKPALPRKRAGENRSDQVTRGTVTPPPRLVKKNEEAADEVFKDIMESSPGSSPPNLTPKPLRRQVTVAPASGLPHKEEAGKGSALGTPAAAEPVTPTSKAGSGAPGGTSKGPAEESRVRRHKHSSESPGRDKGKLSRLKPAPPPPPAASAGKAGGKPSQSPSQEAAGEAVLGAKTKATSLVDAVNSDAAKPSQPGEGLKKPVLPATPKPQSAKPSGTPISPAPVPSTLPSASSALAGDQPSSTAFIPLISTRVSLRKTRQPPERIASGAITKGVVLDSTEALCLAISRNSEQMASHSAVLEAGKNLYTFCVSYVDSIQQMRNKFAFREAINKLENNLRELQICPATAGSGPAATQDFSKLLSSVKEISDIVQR

[39] = target: MARK1 (human) (UniProt Q9P0L2)
[40] = target: EGFR (human) (UniProt P00533)
[41] = target: NEK7 (human) (UniProt Q8TDX7)
[42] = target: DCLK1 (human) (UniProt O15075)
Sequence of DCLK1 (human) (O15075 whole entry, looked up): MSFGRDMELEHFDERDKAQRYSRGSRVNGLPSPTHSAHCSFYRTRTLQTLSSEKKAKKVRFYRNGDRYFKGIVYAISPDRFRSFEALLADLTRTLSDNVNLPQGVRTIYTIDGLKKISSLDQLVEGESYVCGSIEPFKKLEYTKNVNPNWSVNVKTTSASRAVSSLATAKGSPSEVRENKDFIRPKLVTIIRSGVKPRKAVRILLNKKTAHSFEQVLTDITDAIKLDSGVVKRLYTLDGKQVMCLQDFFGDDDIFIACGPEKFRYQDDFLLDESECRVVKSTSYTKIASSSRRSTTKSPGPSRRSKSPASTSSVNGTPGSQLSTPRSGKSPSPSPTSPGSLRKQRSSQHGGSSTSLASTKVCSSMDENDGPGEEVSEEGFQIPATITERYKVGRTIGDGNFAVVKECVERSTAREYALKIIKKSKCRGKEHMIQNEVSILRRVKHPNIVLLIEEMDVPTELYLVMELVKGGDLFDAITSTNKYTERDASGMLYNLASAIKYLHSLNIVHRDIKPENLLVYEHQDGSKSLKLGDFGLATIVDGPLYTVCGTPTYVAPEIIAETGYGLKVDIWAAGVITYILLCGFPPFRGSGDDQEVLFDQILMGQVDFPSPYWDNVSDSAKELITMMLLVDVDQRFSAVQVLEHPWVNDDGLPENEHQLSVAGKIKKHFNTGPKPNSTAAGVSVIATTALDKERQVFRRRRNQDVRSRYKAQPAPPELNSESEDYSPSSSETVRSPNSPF

Compound: COc1cc(N2CCN(C)CC2)ccc1Nc1ncc2c(n1)N(C)c1sccc1C(=O)N2C
- kinase still bound, per cent of control [1]: 97%
- kinase still bound, per cent of control [2]: 76%
- kinase still bound, per cent of control [3]: 100%
- kinase still bound, per cent of control [4]: 99%
- kinase still bound, per cent of control [5]: 79%
- kinase still bound, per cent of control [6]: 82%
- kinase still bound, per cent of control [7]: 91%
- kinase still bound, per cent of control [8]: 100%
- kinase still bound, per cent of control [9]: 92%
- kinase still bound, per cent of control [10]: 2.5%
- kinase still bound, per cent of control [11]: 80%
- kinase still bound, per cent of control [12]: 88%
- kinase still bound, per cent of control [13]: 69%
- kinase still bound, per cent of control [14]: 46%
- kinase still bound, per cent of control [15]: 87%
- kinase still bound, per cent of control [16]: 71%
- kinase still bound, per cent of control [17]: 83%
- kinase still bound, per cent of control [18]: 93%
- kinase still bound, per cent of control [19]: 100%
- kinase still bound, per cent of control [20]: 100%
- kinase still bound, per cent of control [21]: 84%
- kinase still bound, per cent of control [22]: 71%
- kinase still bound, per cent of control [23]: 61%
- kinase still bound, per cent of control [24]: 77%
- kinase still bound, per cent of control [25]: 85%
- kinase still bound, per cent of control [26]: 100%
- kinase still bound, per cent of control [27]: 92%
- kinase still bound, per cent of control [28]: 86%
- kinase still bound, per cent of control [29]: 100%
- kinase still bound, per cent of control [30]: 78%
- kinase still bound, per cent of control [31]: 44%
- kinase still bound, per cent of control [32]: 96%
- kinase still bound, per cent of control [33]: 89%
- kinase still bound, per cent of control [34]: 100%
- kinase still bound, per cent of control [35]: 88%
- kinase still bound, per cent of control [36]: 80%
- kinase still bound, per cent of control [37]: 84%
- kinase still bound, per cent of control [38]: 79%
- kinase still bound, per cent of control [39]: 64%
- kinase still bound, per cent of control [40]: 80% and 87%
- kinase still bound, per cent of control [41]: 93%
- kinase still bound, per cent of control [42]: 1.4%

Compound: COc1cc(N2CCN(C)CC2)ccc1Nc1ncc2c(n1)N(C)c1ccccc1N(C)C2=O
- kinase still bound, per cent of control [1]: 100%
- kinase still bound, per cent of control [2]: 100%
- kinase still bound, per cent of control [3]: 92%
- kinase still bound, per cent of control [4]: 91%
- kinase still bound, per cent of control [5]: 94%
- kinase still bound, per cent of control [6]: 100%
- kinase still bound, per cent of control [7]: 80%
- kinase still bound, per cent of control [8]: 93%
- kinase still bound, per cent of control [9]: 98%
- kinase still bound, per cent of control [10]: 100%
- kinase still bound, per cent of control [11]: 89%
- kinase still bound, per cent of control [12]: 100%
- kinase still bound, per cent of control [13]: 93%
- kinase still bound, per cent of control [14]: 85%
- kinase still bound, per cent of control [15]: 100%
- kinase still bound, per cent of control [16]: 99%
- kinase still bound, per cent of control [17]: 26%
- kinase still bound, per cent of control [18]: 100%
- kinase still bound, per cent of control [19]: 53%
- kinase still bound, per cent of control [20]: 97%
- kinase still bound, per cent of control [21]: 100%
- kinase still bound, per cent of control [22]: 100%
- kinase still bound, per cent of control [23]: 100%
- kinase still bound, per cent of control [24]: 97%
- kinase still bound, per cent of control [25]: 100%
- kinase still bound, per cent of control [26]: 100%
- kinase still bound, per cent of control [27]: 97%
- kinase still bound, per cent of control [28]: 100%
- kinase still bound, per cent of control [29]: 100%
- kinase still bound, per cent of control [30]: 82%
- kinase still bound, per cent of control [31]: 75%
- kinase still bound, per cent of control [32]: 100%
- kinase still bound, per cent of control [33]: 6.6%
- kinase still bound, per cent of control [34]: 88%
- kinase still bound, per cent of control [35]: 95%
- kinase still bound, per cent of control [36]: 99%
- kinase still bound, per cent of control [37]: 100%
- kinase still bound, per cent of control [38]: 100%
- kinase still bound, per cent of control [39]: 86%
- kinase still bound, per cent of control [41]: 81%
- kinase still bound, per cent of control [42]: 56%
